Like-named read-outs stand apart in the source and are kept apart here.
Key:
injection site [1] = conditions: cited from earlier work
injection site [2] = experiment: Local tolerability / irritation at the injection site, general statements; conditions: applicant's statement
injection site [3] = conditions: in vivo
[4] = statement on known products, solvents or bases

**Q.** With `CC(O)CO` (centres unmarked) [1,2-propanediol] as the molecule, how does the “local tolerability / irritation” value (injection site [1]; [4]) read?
**A.** The value was “highly irritant and have haemolytic effects”.

**Q.** For `N=C(N)NCCC[C@H](N)C(=O)O` [L-arginine], which “local tolerability / irritation” value (injection site [2]) is on record?
**A.** The value was “excellent local tolerability”.

**Q.** For `NCCCC[C@H](N)C(=O)O` [L-lysine], which “local tolerability / irritation” value (injection site [2]) is on record?
**A.** Its value is “excellent local tolerability”.

**Q.** For `NCCC[C@H](N)C(=O)O` [L-ornithine], which “local tolerability / irritation” value (injection site [2]) is on record?
**A.** Its value is “excellent local tolerability”.

**Q.** With `[O]=[Mg]` [MgO, Magnesium oxide] as the molecule, how does the “local tolerability / irritation” value (injection site [3]) read?
**A.** Its value is “irritant for tissue”.

**Q.** For `OCCNCCO` [diethanolamine], which “local tolerability / irritation” value (injection site [1]; in vivo) is on record?
**A.** Its value is “very irritant”.

**Q.** Which “local tolerability / irritation” value (injection site [1]; [4]) does the source give for `NCCO` [monoethanolamine] here?
**A.** Its value is “very irritant”.

**Q.** Which “local tolerability / irritation” value (injection site [1]; in vivo) does the source give for polyethylene glycol here?
**A.** The value was “highly irritant and have haemolytic effects”.

From patent US5753636A, “Injection solution for intramuscular and subcutaneous administration to animals” (priority 1993, dated 1998)
